Tests used:
cardiac 5-HT4 receptors [1] = biological target: cardiac 5-HT4 receptors (Sus scrofa, UniProt Q6Q253); assay: Piglet spontaneous beating atria screen (right atrium, positive chronotropic effect, antagonism of 5-HT); assay type: cell-based, Porcine
Method: Method (See A. J. Kaumann, 1990, Naunyn-Schmiedeberg's Arch. Pharmacol 342, 619-622).
Piglets of either sex, 2 to 5 days old, were obtained from local farms. Usually 2 piglets were from the same litter. The piglets were anaesthetised with halothene; their hearts rapidly removed and washed free of blood with warm solution containing (mM):120 Na^+, 5 K^+, 2.25 Ca^2+, 0.5 Mg^2+, 98.5 Cl^-, 0.5 SO4^2-, 34 HCO3^-, 1 HPO4^2-, 0.04 EDTA, deionised and double distilled water in glass, equilibrated with 95% O2 and 5% CO2.
After dissection of the right atrium in warm solution, the tissue was set up in an apparatus with a 50 ml. bath (Blinks, 1965 J. Appl. Physiol. 20, 755-757), containing the solution described above supplemented with (mM):15 Na^+, 5 fumarate, 5 pyruvate, 5 L-glutamate, 10 glucose. Experiments were carried out at 37°C. […] The tissue was attached to a Swema SG4-45 strain gauge transducer by means of a stainless steel wire and force recorded on a Watanabe polygraph. […]
A single cumulative concentration-effect curve was determined by the sequential addition of 5-HT or other agonists to the bath in amounts that increased the total concentration in steps of ½ log unit. […] The time of incubation with an antagonist was at least 1 hr before a concentration-effect curve for an agonist was determined.

cardiac 5-HT4 receptors [2] = biological target: T1, cardiac 5-HT4 receptors (Homo sapiens, UniProt Q13639); assay: Human right atrial preparations (force), blocking potency of antagonists; assay type: cell-based; details: Granisetron tested at 20 µM
T1 construct: from tissue; host or cells: human right atrial preparation
T1 sequence (Q13639 whole entry): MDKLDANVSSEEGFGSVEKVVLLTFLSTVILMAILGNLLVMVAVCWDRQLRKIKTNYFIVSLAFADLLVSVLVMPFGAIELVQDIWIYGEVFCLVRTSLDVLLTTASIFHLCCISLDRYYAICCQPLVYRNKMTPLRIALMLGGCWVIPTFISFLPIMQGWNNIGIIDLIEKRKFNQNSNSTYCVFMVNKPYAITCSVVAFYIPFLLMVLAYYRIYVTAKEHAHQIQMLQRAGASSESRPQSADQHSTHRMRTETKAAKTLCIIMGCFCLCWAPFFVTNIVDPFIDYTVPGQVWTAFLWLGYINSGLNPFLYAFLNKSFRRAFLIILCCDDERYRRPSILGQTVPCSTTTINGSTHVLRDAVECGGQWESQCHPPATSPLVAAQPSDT

cardiac 5-HT4 receptors (Sus scrofa, UniProt Q6Q253), sequence (Q6Q253 1-402): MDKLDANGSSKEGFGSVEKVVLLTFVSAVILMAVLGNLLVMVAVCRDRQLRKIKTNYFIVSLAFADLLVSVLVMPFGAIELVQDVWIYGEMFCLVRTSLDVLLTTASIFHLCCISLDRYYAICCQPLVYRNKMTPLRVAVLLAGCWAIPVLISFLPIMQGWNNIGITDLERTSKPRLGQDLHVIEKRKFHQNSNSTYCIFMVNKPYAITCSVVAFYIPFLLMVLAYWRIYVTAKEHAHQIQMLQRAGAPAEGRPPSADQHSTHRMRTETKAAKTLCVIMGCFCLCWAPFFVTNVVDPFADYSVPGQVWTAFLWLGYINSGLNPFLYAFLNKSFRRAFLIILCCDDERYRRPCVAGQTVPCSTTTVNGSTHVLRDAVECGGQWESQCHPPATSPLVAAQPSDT

SMILES | type of antagonism of cardiac 5-HT4 receptors (cardiac 5-HT4 receptors [1]; conclusion from the preliminary screening results of Table 1) | pK (-log M equilibrium dissociation constant), blocking potency, Porcine (rate) (cardiac 5-HT4 receptors [1]; piglet spontaneously beating right atrium, rate, 37°C, 400 nM (±)-propranolol and 6 µM cocaine present, antagonist incubated at least 1 hr, Granisetron tested at 1 µM, preliminary screening results) | pK (-log M equilibrium dissociation constant), blocking potency, Human (force) (cardiac 5-HT4 receptors [2])
CN1[C@@H]2CC[C@H]1C[C@@H](OC(=O)c1n[nH]c3ccccc13)C2 [(3-α-tropanyl)-1H-indazole-3-carboxylic acid ester] | competitive antagonist | – | –
CN1C2CCCC1CC(NC(=O)c1nn(C)c3ccccc13)C2 (stereo not drawn) [Granisetron] | – | ineffective (1 µM) | ineffective (20 µM)

— patent EP0526540B1, “USE OF 5-HT4-RECEPTOR ANTAGONISTS IN THE TREATMENT OF ATRIAL FIBRILLATION, INCLUDING THE PREVENTION OF STROKE” (SMITH KLINE & FRENCH LABORATORIES LIMITED, priority 1990, dated 1991)
